We go through two molecules from PMC6538953, “Metal Ions Activate the Human Taste Receptor TAS2R7” (Chemical Senses, 2019).

Positions count from the first letter of the chain named. Like-named read-outs stand apart in the source and are kept apart here.

In series [1] the target is T1, human TAS2R7 H94^3.37F mutant (Homo sapiens, UniProt Q9NYW3, H94F).
T1 construct: signal peptide: first 45 amino acid residues of rat somatostatin receptor 3 (N); expressed in transfected cells; host or cells: HEK293 PEAKrapid (ATCC CRL-2828), transient, co-transfected with Gα16-gust44
T1 sequence (Q9NYW3 1-318 H94F): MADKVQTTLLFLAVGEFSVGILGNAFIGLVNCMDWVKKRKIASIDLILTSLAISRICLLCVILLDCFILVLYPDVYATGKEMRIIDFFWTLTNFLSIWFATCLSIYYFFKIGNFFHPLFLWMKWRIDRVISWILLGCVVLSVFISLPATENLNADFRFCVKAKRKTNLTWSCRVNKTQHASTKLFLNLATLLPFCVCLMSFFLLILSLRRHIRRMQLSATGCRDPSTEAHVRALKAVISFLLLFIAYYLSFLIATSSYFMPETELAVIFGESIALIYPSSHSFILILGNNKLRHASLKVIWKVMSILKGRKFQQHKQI
The series is described as follows: Calcium mobilization assay, TAS2R7 mutant H94F. The conditions noted are these: 20 mM metal ions except 0.16 mM Al2(SO4)3; Figure 6B. It counts as cell-based. The source says: (§1) The coding sequences of human TAS2Rs were amplified from human genomic DNA, then subcloned into pcDNA3.1(+) vector, with the herpes simplex virus glycoprotein D epitope (HSV) at the C-terminal and a signal peptide consisting of the first 45 amino acid residues of the rat somatostatin receptor 3 at the N-terminal, essentially as described previously ([Bufe et al. 2002]). Point mutations in human TAS2R7 (NCBI Reference Sequence: NP_076408.1) were constructed by site-directed mutagenesis. All the constructs were confirmed by Sanger sequencing.
Human embryonic kidney 293 (PEAKrapid, ATCC # CRL-2828) cells were cultured in Opti-MEM medium with 4% fetal bovine serum. […] After incubation, cells were washed 2 times with HBSS (including 10 mM HEPES), incubated in the dark for another 30 min, and then washed with assay solution once more before running the assay using a FlexStation III reader. Relative fluorescence units (excitation at 494 nm, emission at 516 nm, and auto cutoff at 515 nm) were read every 2 s for 2 min. Calcium mobilization traces were recorded.
Calcium mobilization traces were raw data obtained from single wells. Changes in fluorescence (ΔF) were calculated as the peak fluorescence minus baseline fluorescence ([Lei et al. 2015]). The calcium mobilization was quantified as the percentage of change (ΔF) relative to baseline (F). […]

Series [2] addresses T2, human TAS2R7 E264^7.32K mutant (Homo sapiens, UniProt Q9NYW3, E264K).
T2 construct: signal peptide: first 45 amino acid residues of rat somatostatin receptor 3 (N); expressed in transfected cells; host or cells: HEK293 PEAKrapid (ATCC CRL-2828), transient, co-transfected with Gα16-gust44
T2 sequence (Q9NYW3 1-318 E264K): T1 sequence (Q9NYW3 1-318 H94F) with F94H, E264K
The series is described as follows: Calcium mobilization assay, TAS2R7 mutant E264K. It counts as cell-based. The conditions noted are these: 20 mM metal ions except 0.16 mM Al2(SO4)3; cromolyn 10 mM; Figure 6B.
Description: as §1
(§2) Human embryonic kidney 293 (PEAKrapid, ATCC # CRL-2828) cells were cultured in Opti-MEM medium with 4% fetal bovine serum. One day before transfection, cells were seeded on a 96-well plate at a density of 25 000 per well. Cells were then transiently transfected with a TAS2R construct (0.1 µg/well) along with a G protein Gα16-gust44 (0.1 µg/well) construct by Lipofectamine 2000 (0.5 µl/well). For controls, only Gα16-gust44 was used (mock transfection). Twenty-four hours after transfection, cells were washed with HBSS including 10 mM HEPES and loaded with Fluo-4 in the dark for 1 h. After incubation, cells were washed 2 times with HBSS (including 10 mM HEPES), incubated in the dark for another 30 min, and then washed with assay solution once more before running the assay using a FlexStation III reader. Relative fluorescence units (excitation at 494 nm, emission at 516 nm, and auto cutoff at 515 nm) were read every 2 s for 2 min. Calcium mobilization traces were recorded.
(§3) Calcium mobilization traces were raw data obtained from single wells. Changes in fluorescence (ΔF) were calculated as the peak fluorescence minus baseline fluorescence ([Lei et al. 2015]). The calcium mobilization was quantified as the percentage of change (ΔF) relative to baseline (F). […] Calcium mobilization traces and bar graphs along with dose-dependent plots were all generated by GraphPad Prism 7. Analysis of variance with Dunnett’s multiple comparisons test was used for statistical analysis. *P < 0.05.
To assess the importance of these residues, we performed site-directed mutagenesis. We mutated the negatively charged residues E16^1.42, E264^7.32, and E271^7.39 to Q (glutamine), K (lysine), or L (leucine). The facing H94^3.37 was mutated to F (phenylalanine). HEK293 cells that expressed mutant receptors along with Gα16-gust44 were examined for their responses to metal ions (20 mM for all except 0.16 mM Al2(SO4)3) and cromolyn (10 mM, as a positive control) to assess receptor’s function. To determine the expression level of each receptor, we stained the wild-type or mutant receptor-transfected cells using an anti-HSV antibody since all the receptors are tagged with HSV at c-terminal. […]
For orientation: Calcium flux is commonly read through the fluorescence of an indicator in the cells.

The target in a further series is T3, human TAS2R7 (Homo sapiens, UniProt Q9NYW3).
T3 construct: first 45 residues of rat somatostatin receptor 3 (signal peptide) (N); expressed in transfected cells; host or cells: HEK293 (PEAKrapid, ATCC CRL-2828)
T3 sequence (Q9NYW3 1-318): T1 sequence (Q9NYW3 1-318 H94F) with F94H
The series is described as follows: Calcium mobilization assay, HEK293 cells transfected with TAS2R7 and Gα16-gust44. It counts as cell-based. Particulars: for Activation of TAS2R7 by metal ions: 20 mM, Figure 1A,B; for Dose dependence of TAS2R7 response: Figure 2A,C.
Description: as §1
All tested compounds were purchased from Sigma–Aldrich, with the exception of diphenidol hydrochloride (Reagent World) and L-praziquantel (manufactured by Shaoxing Pharmaceutical Co. Ltd.). All the metal ions were dissolved in the assay solution (130 mM NaCl, 5 mM KCl, 2 mM CaCl2, and 10 mM glucose; pH 7.4) unless specified otherwise, and the bitter compounds (diphenidol, quinine, and chlorphenamine) were dissolved first in dimethyl sulfoxide (DMSO) as stock solution and then diluted with the assay solution; the final DMSO concentration was below 0.5%, with the exception of cromolyn, which is dissolved in the assay solution directly. For our initial screening (Table 1), Hanks’ balanced salt solution (HBSS, ThermoFisher, catalog no. 14025134) supplemented with 10 mM hydroxyethyl piperazineethanesulfonic acid (HEPES) were used as the assay buffer.
as §2, §3
To determine whether a TAS2R responds to metal ions, we expressed all 25 human bitter receptors individually in HEK293 cells (PEAKrapid) by transient transfection of a TAS2R along with a coupling chimeric G protein, Gα16-gust44. All TAS2Rs were cloned from human genomic DNA. Activation of human TAS2Rs was monitored by the calcium mobilization assay ([Lei et al. 2015]). We tested these receptors individually for their responses toward metal ions: ZnSO4 (20 mM), CuSO4 (20 mM), and MgCl2 (20 mM) (Table 1, Figure 1A). […] To determine the breadth of tuning of TAS2R7 toward metal ions, we also tested MnCl2 (20 mM), Al2(SO4)3 ([…]), and CaCl2 (20 mM) (Figure 1B).

Details of series [3]: method as in Lau et al. 1991. The conditions noted are these: administered systemically, animal studies; ref Lau et al. 1991; cited from earlier work.
The subject of another series is CaSR. Particulars: ref Spurney et al. 1999; cited from earlier work.
Series [4] relates to mock-transfected HEK293 cells (Gα16-gust44 only). The series is described as follows: Calcium mobilization assay, mock-transfected cells (Gα16-gust44 only). The conditions noted are these: any concentration tested (cromolyn 10 mM). It counts as cell-based, human. The procedure:
as §2
Calcium mobilization traces were raw data obtained from single wells. Changes in fluorescence (ΔF) were calculated as the peak fluorescence minus baseline fluorescence ([Lei et al. 2015]). The calcium mobilization was quantified as the percentage of change (ΔF) relative to baseline (F). […] Calcium mobilization traces and bar graphs along with dose-dependent plots were all generated by GraphPad Prism 7. […]

Series [5] has as its target T4, human TAS2R7 E264^7.32L mutant (Homo sapiens, UniProt Q9NYW3, E264L).
T4 construct: signal peptide: first 45 amino acid residues of rat somatostatin receptor 3 (N); expressed in transfected cells; host or cells: HEK293 PEAKrapid (ATCC CRL-2828), transient, co-transfected with Gα16-gust44
T4 sequence (Q9NYW3 1-318 E264L): T1 sequence (Q9NYW3 1-318 H94F) with F94H, E264L
The series is described as follows: Calcium mobilization assay, TAS2R7 mutant E264L. It counts as cell-based. The conditions noted are these: 20 mM metal ions except 0.16 mM Al2(SO4)3; cromolyn 10 mM; Figure 6B.
Description: as §1, §2
Calcium mobilization traces were raw data obtained from single wells. Changes in fluorescence (ΔF) were calculated as the peak fluorescence minus baseline fluorescence ([Lei et al. 2015]). The calcium mobilization was quantified as the percentage of change (ΔF) relative to baseline (F). […] Calcium mobilization traces and bar graphs along with dose-dependent plots were all generated by GraphPad Prism 7. Analysis of variance with Dunnett’s multiple comparisons test was used for statistical analysis. *P < 0.05. […]

The mark [6] stands for this setting: assay solution with 2 mM CaCl2, Figure 2, read-out: EC50, TAS2R7 concentration-response.

In the case of `[Cl][Mn][Cl]` [MnCl2], the “Response of H94F mutant receptor” value in series [1] is “diminished responses”. Also, in series [2], the “Response of E264K mutant receptor” value was “still responsive”. Further, the “Activation of TAS2R7 by metal ions” value at human TAS2R7 is listed as “activated the receptor”. In addition, the “Dose dependence of TAS2R7 response” value on human TAS2R7 is listed as “dose-dependent responses”. Also, the EC50 amounted to 2240 µM on human TAS2R7 (assay solution containing calcium, Figures 3A, 4C, read-out: EC50, TAS2R7, in the presence of calcium); 7190 µM on human TAS2R7 (assay solution containing no calcium, Figures 3A, 4C, read-out: EC50, TAS2R7, in the absence of calcium); 6590 ± 1730 µM at human TAS2R7 (setting [6]).

As for `O=S(=O)([O-])[O-].O=S(=O)([O-])[O-].O=S(=O)([O-])[O-].[Al+3].[Al+3]` [Al2(SO4)3, aluminum sulfate], in series [3], the “Concentration reached in serum” value is recorded as 50 µM. Moreover, in the series with CaSR, the “Activity at CaSR” value is “weak agonist”. For the same molecule, the “Response of mock-transfected cells” value in series [4] was “no responses”. The “Response of E264K mutant receptor” value in series [2] is listed as “specific loss of responses”. Further, the “Activation of TAS2R7 by metal ions” value at human TAS2R7 is on record as “activated the receptor”. In addition, the “Dose dependence of TAS2R7 response” value at human TAS2R7 is “dose-dependent responses”. In addition, the EC50 on human TAS2R7 (assay solution containing calcium, Figure 3A, read-out: EC50, TAS2R7, in the presence of calcium) came out at 29 µM; on human TAS2R7 (assay solution containing no calcium, Figure 3A, read-out: EC50, TAS2R7, in the absence of calcium) it was 55 µM; at human TAS2R7 (setting [6]), 39 ± 15 µM. In addition, in series [5], the “Response of E264L mutant receptor” value is “insensitive”.
